# Activity calls are given as the source filed them. The rule behind the calls is not given here.
# Key:
# [1] = target: Muscarinic acetylcholine receptor; assay type: tissue-based, Neocortex
# [2] = target: T1, Muscarinic acetylcholine receptor M1 (Homo sapiens) (UniProt P11229); settings: NIH3T3
# T1 sequence (whole entry): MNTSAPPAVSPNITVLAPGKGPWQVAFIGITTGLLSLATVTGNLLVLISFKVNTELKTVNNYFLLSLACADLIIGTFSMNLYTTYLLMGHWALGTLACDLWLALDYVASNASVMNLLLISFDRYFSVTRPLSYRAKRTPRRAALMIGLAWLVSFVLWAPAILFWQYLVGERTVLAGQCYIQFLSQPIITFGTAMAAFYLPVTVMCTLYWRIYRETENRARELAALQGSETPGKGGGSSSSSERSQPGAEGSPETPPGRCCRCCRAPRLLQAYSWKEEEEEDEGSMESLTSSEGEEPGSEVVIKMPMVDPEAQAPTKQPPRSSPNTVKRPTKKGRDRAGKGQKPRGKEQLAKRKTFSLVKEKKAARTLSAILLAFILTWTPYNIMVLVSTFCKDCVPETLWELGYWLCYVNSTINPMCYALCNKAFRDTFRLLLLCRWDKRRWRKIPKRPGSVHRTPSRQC
# Description: Agonistic efficacy in human m1 muscarinic receptor expressed with the marker gene beta-galactosidase in NIH 3T3 cells.
# [3] = target: Muscarinic acetylcholine receptor
# Description: Binding affinity against muscarinic receptor using radioligand [3H]cis-methyldioxolane (CMD) binding assay in membrane preparations of rat neocortex.
# [4] = target: T2, Muscarinic acetylcholine receptor M2 (Homo sapiens) (UniProt P08172); settings: NIH3T3
# T2 sequence (whole entry): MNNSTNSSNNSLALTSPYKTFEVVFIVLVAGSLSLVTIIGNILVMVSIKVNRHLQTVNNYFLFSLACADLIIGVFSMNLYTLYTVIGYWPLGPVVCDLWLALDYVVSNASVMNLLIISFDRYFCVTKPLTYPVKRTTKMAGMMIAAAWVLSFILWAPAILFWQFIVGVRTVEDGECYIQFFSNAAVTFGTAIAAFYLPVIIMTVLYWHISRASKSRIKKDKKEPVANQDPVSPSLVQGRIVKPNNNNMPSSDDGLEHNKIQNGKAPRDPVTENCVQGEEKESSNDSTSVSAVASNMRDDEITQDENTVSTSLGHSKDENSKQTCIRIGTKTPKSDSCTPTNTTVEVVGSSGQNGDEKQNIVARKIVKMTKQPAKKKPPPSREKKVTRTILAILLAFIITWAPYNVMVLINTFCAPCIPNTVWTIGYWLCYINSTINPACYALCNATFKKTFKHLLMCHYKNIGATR
# Description: Agonistic efficacy in human m2 muscarinic receptor expressed with the marker gene beta-galactosidase in NIH 3T3 cells.
# [5] = target: Muscarinic acetylcholine receptor; remark: listed apart in the source
# Description: Binding affinity against muscarinic receptor using radioligand [3H]quinuclidinyl benzilate (QNB) binding assay in membrane preparations of rat neocortex.
# [6] = target: T3, Muscarinic acetylcholine receptor (Rattus norvegicus) (UniProt P08482+P08483+P08485+P08911+P10980); assay type: tissue-based; settings: Neocortex; 100 nM
# [7] = target: T3, Muscarinic acetylcholine receptor (Rattus norvegicus); assay type: tissue-based; settings: Neocortex; 1 uM
# [8] = target: T1, Muscarinic acetylcholine receptor M1 (Homo sapiens); assay: Agonistic efficacy in human m1 muscarinic receptor which was expressed with the marker gene beta-galactosidase in NIH 3T3 cells; No data; assay type: functional, cell-based; settings: NIH3T3
Structure (SMILES),ED50 [2],IC50 [3],ED50 [4],IC50 [5],further results
COc1ccc(C#C/C(C)=C\CO/N=C2\CN3CCC2C3)cc1 (configuration not stated),8.5 nM,0.1 nM,8.9 nM,,IC50 [1]: 60 nM
C/C(C#Cc1ccc(C)cc1)=C\CO/N=C1\CN2CCC1C2 (configuration not stated),,22.16 nM,,681 nM,
C[N+](C)(C)CCOC(N)=O,,,22.8 nM,,
COc1ccc(C#C/C(C)=C\CO/N=C2/CN3CCC2C3)cc1 (configuration not stated),8.6 nM,17 nM,10.7 nM,1992 nM,
C/C(C#Cc1ccc(Cl)c(Cl)c1)=C\CO/N=C1/CN2CCC1C2 (configuration not stated),,,,,inhibition [6]: 49%; inhibition [7]: 39%
COc1cccc(C#C/C(C)=C/CO/N=C2/CN3CCC2C3)c1 (configuration not stated),264 nM,,,,
C/C(C#Cc1cccs1)=C/CO/N=C1\CN2CCC1C2 (configuration not stated),6.2 nM,0.02 nM,2.3 nM,21 nM,
COc1ccc(C#C/C(C)=C/CO/N=C2\CN3CCC2C3)cc1 (configuration not stated),,12 nM,,1413 nM,
COc1ccc(C#C/C(C)=C\CO/N=C2\CN3CCC2C3)cc1OC (configuration not stated),55 nM,1.38 nM,,1245 nM,
C/C(C#Cc1ccc(F)cc1)=C\CO/N=C1\CN2CCC1C2 (configuration not stated),31.5 nM,,,,
C/C(C#Cc1ccccc1)=C/CO/N=C1\CN2CCC1C2 (configuration not stated),,0.15 nM,,44 nM,
COc1cccc(C#C/C(C)=C/CO/N=C2\CN3CCC2C3)c1 (configuration not stated),93.2 nM,,,,
C/C(C#Cc1ccc(F)cc1)=C/CO/N=C1\CN2CCC1C2 (configuration not stated),20.9 nM,,,,
COc1ccc(C#C/C(C)=C/CO/N=C2\CN3CCC2C3)cc1OC (configuration not stated),74 nM,5.37 nM,1.8 nM,2380 nM,
C#C/C(C)=C\CO/N=C1/CN2CCC1C2 (configuration not stated),30 nM,12 nM,45 nM,4234 nM,
C/C(C#Cc1ccc(Cl)c(Cl)c1)=C/CO/N=C1/CN2CCC1C2 (configuration not stated),,,,,inhibition [6]: 14%; inhibition [7]: 51%
C/C(C#Cc1ccc(C)cc1)=C/CO/N=C1\CN2CCC1C2 (configuration not stated),10.5 nM,0.57 nM,10.7 nM,64 nM,
C/C(C#Cc1ccc(C)cc1)=C/CO/N=C1/CN2CCC1C2 (configuration not stated),83.3 nM,5.02 nM,4.4 nM,383 nM,
C/C(C#Cc1ccccc1)=C/CO/N=C1/CN2CCC1C2 (configuration not stated),120 nM,1.07 nM,4.2 nM,181 nM,
C/C(C#Cc1ccc(Cl)c(Cl)c1)=C/CO/N=C1\CN2CCC1C2 (configuration not stated),,,,,inhibition [6]: 46%; inhibition [7]: 77%

Structure (SMILES),ED50 [2],IC50 [3],ED50 [4],IC50 [5],further results
C/C(C#Cc1ccc(Cl)cc1)=C/CO/N=C1/CN2CCC1C2 (configuration not stated),29.1 nM,0.45 nM,2.8 nM,81 nM,
COc1cccc(C#C/C(C)=C\CO/N=C2\CN3CCC2C3)c1 (configuration not stated),51.1 nM,,,,
COc1ccc(C#C/C(C)=C/CO/N=C2/CN3CCC2C3)cc1 (configuration not stated),,,,,inhibition [6]: 33%; inhibition [7]: 19%
C#C/C(C)=C\CO/N=C1\CN2CCC1C2 (configuration not stated),12 nM,,23.7 nM,,
COc1ccc(C#C/C(C)=C\CO/N=C2/CN3CCC2C3)cc1OC (configuration not stated),162 nM,4.6 nM,0.9 nM,8547 nM,
C#C/C(C)=C/CO/N=C1/CN2CCC1C2 (configuration not stated),,21 nM,,19308 nM,
C/C(C#Cc1ccccc1)=C\CO/N=C1\CN2CCC1C2 (configuration not stated),,12.4 nM,,1587 nM,
C/C(C#Cc1ccc(Cl)c(Cl)c1)=C\CO/N=C1\CN2CCC1C2 (configuration not stated),398 nM,0.8 nM,940 nM,171 nM,
C/C(C#Cc1ccc(Cl)cc1)=C/CO/N=C1\CN2CCC1C2 (configuration not stated),,,,,ED50 [8]: inactive
C/C(C#Cc1ccc(Cl)cc1)=C\CO/N=C1/CN2CCC1C2 (configuration not stated),,,,,inhibition [6]: 57%; inhibition [7]: 52%
C/C(C#Cc1cccs1)=C/CO/N=C1/CN2CCC1C2 (configuration not stated),11.6 nM,4.1 nM,2.5 nM,608 nM,
C/C(C#Cc1ccc(Cl)cc1)=C\CO/N=C1\CN2CCC1C2 (configuration not stated),,27.12 nM,,439 nM,
C/C(C#Cc1cccs1)=C\CO/N=C1\CN2CCC1C2 (configuration not stated),0.4 nM,4.96 nM,24 nM,968 nM,
C#C/C(C)=C/CO/N=C1\CN2CCC1C2 (configuration not stated),85 nM,4 nM,11 nM,,
C/C(C#Cc1ccc(F)cc1)=C\CO/N=C1/CN2CCC1C2 (configuration not stated),156 nM,,,,
C/C(C#Cc1cccs1)=C\CO/N=C1/CN2CCC1C2 (configuration not stated),,80.47 nM,,5593 nM,
C/C(C#Cc1ccc(F)cc1)=C/CO/N=C1/CN2CCC1C2 (configuration not stated),48 nM,,,,
C/C(C#Cc1ccc(C)cc1)=C\CO/N=C1/CN2CCC1C2 (configuration not stated),,,,,inhibition [6]: 29%; inhibition [7]: 31%
C/C(C#Cc1ccccc1)=C\CO/N=C1/CN2CCC1C2 (configuration not stated),,,,,inhibition [6]: 31%; inhibition [7]: 18%

# — ChEMBL document CHEMBL1128636, “()-1-Azabicyclo[2.2.1]heptan-3-one, O-(3-methyl-5-aryl-2-penten-4-ynyl) oximes: Potent muscarinic agonists” (Bioorg Med Chem Lett, 1995)
